Source: patent US12365925B2, “Method and system for treatment of microorganisms during propagation, conditioning, fermentation, and preservation using ethyl lauroyl arginate and selected additives” (KEMIN INDUSTRIES, INC., priority 2015, dated 2025)

How the values were obtained:
[1] = tested on: Culture Dry Yeast (CDY) corn-mash fermentations; assay: HPLC of corn-mash fermentations challenged with bacterial contamination and LAE treatments; format: cell-based; conditions: CDY + treatment + Bacteria; average
From the text: In support of validating LAE, High Performance Liquid Chromatography (HPLC) was used in a first phase of testing to evaluate the effects of LAE applications at various concentrations in order to determine the minimal inhibitory concentrations (MIC) of the LAE antimicrobial on a panel of industry-relevant bacteria. Refer to Tables 1 and 2 below, as well as FIGS. 2A-2D. FIG. 2A provides a visual depiction of test data relating to ethanol output from corn-mash fermentations treated with varying concentrations of LAE, with the results being the averages of triplicate samples (within one standard deviation). FIG. 2B provides a visual depiction of test data relating to ethanol output from corn-mash fermentations challenged with bacterial contamination and treated with 35 ppm LAE or 5 ppm Lactocide V (Virginamycin) (at the same time as the introduction of the bacteria), with the results being the averages of triplicate samples (within one standard deviation). FIG. 2C provides a visual depiction of test data relating to ethanol output from corn-mash fermentations challenged with bacterial contamination and treated with 50 ppm LAE or 5 ppm Lactocide V (Virginamycin) (at the same time as the introduction of the bacteria), with the results being the averages of triplicate samples (within one standard deviation). FIG. 2D provides a visual depiction of test data relating to colony-forming units (CFUs) of commercial yeast preparation with bacterial-contamination growth under batch-propagation conditions (molasses) with the addition of 0 ppm, 25 ppm, or 50 ppm LAE. One of the primary goals with the first phase of the LAE studies was to determine whether the addition of LAE would adversely affect ethanol production, and it was determined that LAE not only was not harmful to ethanol-production processes, but that unwanted microbe growth was inhibited using LAE enough to allow foregoing the use of antibiotics. Part of this analysis was to determine whether the introduction of LAE into the ethanol-production process would adversely impact the stillage byproducts used in animal feed, and for that matter whether the further use of LAE as a preservative in such byproducts would be safe for consumption by agricultural livestock. […] The testing serving as a basis for this conclusion assumed a maximum residual concentration of the LAE of 173 ppm in the distiller's grains. The safety of distiller's grains with LAE concentrations above 173 ppm was not fully evaluated.

Weisella confusa = conditions: fermentation mixture; cited from earlier work
fermentation = fermentation mixture; cited from earlier work

In the case of Virginiamycin [Lactocide], the “Acetic Acid” value [1] is reported as 0.14 % wt/vol, the DP3 [1] is reported as 0.15 % wt/vol and the DP4 [1] is reported as 0.78 % wt/vol. The Ethanol [1] was 13.36 % wt/vol, the Glucose [1] was 0.12 % wt/vol and the Glycerol [1] was 1.59 % wt/vol. For the same substance, the “Lactic Acid” value [1] was 0.27 % wt/vol, the Maltose [1] was 0.48 % wt/vol and the “concentration required to inhibit growth” value (Weisella confusa) was “over 25 mg/L”. The “concentration that will suppress fermentation” value (fermentation) was “over 6 mg/L”.
